# Measured values published in patent US10913744B2, “LRRK2 inhibitors and methods of making and using the same” (Dana-Farber Cancer Institute, Inc., priority 2015, dated 2021).
# Read-outs that look alike come from different tables or passages of the source.
# Columns and labels:
# MAP4K3 = MAP4K3 (Homo sapiens (Human), UniProt Q8IVH8); assay: KinomeScan; type: binding; conditions: 1 uM
# JNK2 [1] = biological target: T1, JNK2 (Homo sapiens (Human), UniProt P45984); assay: Dundee profiling
# Src = Src (Homo sapiens (Human), UniProt P12931); assay: Dundee profiling
# IR = IR (Homo sapiens (Human), UniProt P06213); assay: Dundee profiling
# IRAK4 = IRAK4 (Homo sapiens (Human), UniProt Q9NWZ3); assay: Dundee profiling
# TrkA = TrkA (Homo sapiens (Human), UniProt P04629); assay: Dundee profiling
# S6K1 = S6K1 (Homo sapiens (Human), UniProt P23443); assay: Dundee profiling
# EGFR (L858R) = EGFR (L858R) (Homo sapiens (Human), UniProt P00533, L858R); assay: KinomeScan; type: binding; conditions: 1 uM
# MAPKAP-K2 = MAPKAP-K2 (Homo sapiens (Human), UniProt P49137); assay: Dundee profiling
# [2] = biological target: EGFR (L747-E749del, A750P) (Homo sapiens (Human), UniProt P00533, A750P/DEL747-749); assay: KinomeScan; type: binding; conditions: 1 uM
# JNK2 [3] = biological target: T1, JNK2; assay: KinomeScan; type: binding; conditions: 1 uM
# SmMLCK = SmMLCK (Homo sapiens (Human), UniProt Q15746); assay: Dundee profiling
# MARK1 = MARK1 (Homo sapiens (Human), UniProt Q9P0L2); assay: Dundee profiling
# EPH-B1 = EPH-B1 (Homo sapiens (Human), UniProt P54762); assay: Dundee profiling
# CDK3 = CDK3 (Homo sapiens (Human), UniProt Q00526); assay: KinomeScan; type: binding; conditions: 1 uM
# SGK1 = SGK1 (Homo sapiens (Human), UniProt O00141); assay: Dundee profiling
# IKKe = IKKe (Homo sapiens (Human), UniProt Q14164); assay: Dundee profiling
# LKB1 = LKB1 (Homo sapiens (Human), UniProt Q15831); assay: Dundee profiling
# EPH-B4 = EPH-B4 (Homo sapiens (Human), UniProt P54760); assay: Dundee profiling
# ULK2 = ULK2 (Homo sapiens (Human), UniProt Q8IYT8); assay: Dundee profiling
# CSNK1G3 = CSNK1G3 (Homo sapiens (Human), UniProt Q9Y6M4); assay: KinomeScan; type: binding; conditions: 1 uM
# MET (M1250T) = MET (M1250T) (Homo sapiens (Human), UniProt P08581, M1250T); assay: KinomeScan; type: binding; conditions: 1 uM
# p38d MAPK = p38d MAPK (Homo sapiens (Human), UniProt O15264); assay: Dundee profiling
# CDK2-Cyclin A = CDK2-Cyclin A (Homo sapiens (Human), UniProt P24941); assay: Dundee profiling
# EGFR (T790M) = EGFR (T790M) (Homo sapiens (Human), UniProt P00533, T790M); assay: KinomeScan; type: binding; conditions: 1 uM
# PDGFRA = PDGFRA (Homo sapiens (Human), UniProt P16234); assay: Dundee profiling
# [4] = biological target: TYK2 (JH1domain-catalytic) (Homo sapiens (Human), UniProt P29597); assay: KinomeScan; type: binding; conditions: 1 uM
# TBK1 = TBK1 (Homo sapiens (Human), UniProt Q9UHD2); assay: Dundee profiling
# DYRK1A = DYRK1A (Homo sapiens (Human), UniProt Q13627); assay: Dundee profiling
# PRAK = PRAK (Homo sapiens (Human), UniProt Q8IW41); assay: Dundee profiling
# WNK1 = WNK1 (Homo sapiens (Human), UniProt Q9H4A3); assay: Dundee profiling
# MSK1 = MSK1 (Homo sapiens (Human), UniProt O75582); assay: Dundee profiling
# [5] = biological target: EGFR (L747-T751del, Sins) (Homo sapiens (Human), UniProt P00533, DEL747-751/INS746S); assay: KinomeScan; type: binding; conditions: 1 uM
# [6] = read-out: percent remaining enzymatic activity
# [7] = read-out: percent remaining enzymatic activity, I1, 1 μM
# [8] = read-out: percent remaining enzymatic activity, I10
# T1 sequence (P45984 whole entry, species assumed): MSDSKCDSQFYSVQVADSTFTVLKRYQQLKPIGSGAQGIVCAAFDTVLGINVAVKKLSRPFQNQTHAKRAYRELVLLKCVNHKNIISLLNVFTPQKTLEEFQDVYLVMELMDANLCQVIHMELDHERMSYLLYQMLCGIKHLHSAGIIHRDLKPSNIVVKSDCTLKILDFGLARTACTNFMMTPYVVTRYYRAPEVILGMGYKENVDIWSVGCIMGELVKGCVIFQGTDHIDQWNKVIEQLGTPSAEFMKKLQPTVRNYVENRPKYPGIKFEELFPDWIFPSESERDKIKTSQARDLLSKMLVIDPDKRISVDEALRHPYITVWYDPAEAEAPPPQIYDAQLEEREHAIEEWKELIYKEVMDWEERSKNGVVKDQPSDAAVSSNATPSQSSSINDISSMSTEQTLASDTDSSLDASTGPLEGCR
# Sequence of p38d MAPK (O15264 whole entry): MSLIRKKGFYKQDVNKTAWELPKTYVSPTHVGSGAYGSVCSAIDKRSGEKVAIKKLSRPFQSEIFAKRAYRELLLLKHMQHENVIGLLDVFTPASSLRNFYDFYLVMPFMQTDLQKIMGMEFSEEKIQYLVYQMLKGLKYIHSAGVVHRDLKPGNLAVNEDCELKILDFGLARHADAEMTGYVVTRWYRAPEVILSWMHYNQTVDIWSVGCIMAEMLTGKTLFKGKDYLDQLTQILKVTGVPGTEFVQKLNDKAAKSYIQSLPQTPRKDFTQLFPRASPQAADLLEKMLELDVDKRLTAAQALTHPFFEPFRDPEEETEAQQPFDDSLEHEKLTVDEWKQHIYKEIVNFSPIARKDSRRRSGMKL
# Sequence of WNK1 (Q9H4A3 whole entry, looked up, species assumed): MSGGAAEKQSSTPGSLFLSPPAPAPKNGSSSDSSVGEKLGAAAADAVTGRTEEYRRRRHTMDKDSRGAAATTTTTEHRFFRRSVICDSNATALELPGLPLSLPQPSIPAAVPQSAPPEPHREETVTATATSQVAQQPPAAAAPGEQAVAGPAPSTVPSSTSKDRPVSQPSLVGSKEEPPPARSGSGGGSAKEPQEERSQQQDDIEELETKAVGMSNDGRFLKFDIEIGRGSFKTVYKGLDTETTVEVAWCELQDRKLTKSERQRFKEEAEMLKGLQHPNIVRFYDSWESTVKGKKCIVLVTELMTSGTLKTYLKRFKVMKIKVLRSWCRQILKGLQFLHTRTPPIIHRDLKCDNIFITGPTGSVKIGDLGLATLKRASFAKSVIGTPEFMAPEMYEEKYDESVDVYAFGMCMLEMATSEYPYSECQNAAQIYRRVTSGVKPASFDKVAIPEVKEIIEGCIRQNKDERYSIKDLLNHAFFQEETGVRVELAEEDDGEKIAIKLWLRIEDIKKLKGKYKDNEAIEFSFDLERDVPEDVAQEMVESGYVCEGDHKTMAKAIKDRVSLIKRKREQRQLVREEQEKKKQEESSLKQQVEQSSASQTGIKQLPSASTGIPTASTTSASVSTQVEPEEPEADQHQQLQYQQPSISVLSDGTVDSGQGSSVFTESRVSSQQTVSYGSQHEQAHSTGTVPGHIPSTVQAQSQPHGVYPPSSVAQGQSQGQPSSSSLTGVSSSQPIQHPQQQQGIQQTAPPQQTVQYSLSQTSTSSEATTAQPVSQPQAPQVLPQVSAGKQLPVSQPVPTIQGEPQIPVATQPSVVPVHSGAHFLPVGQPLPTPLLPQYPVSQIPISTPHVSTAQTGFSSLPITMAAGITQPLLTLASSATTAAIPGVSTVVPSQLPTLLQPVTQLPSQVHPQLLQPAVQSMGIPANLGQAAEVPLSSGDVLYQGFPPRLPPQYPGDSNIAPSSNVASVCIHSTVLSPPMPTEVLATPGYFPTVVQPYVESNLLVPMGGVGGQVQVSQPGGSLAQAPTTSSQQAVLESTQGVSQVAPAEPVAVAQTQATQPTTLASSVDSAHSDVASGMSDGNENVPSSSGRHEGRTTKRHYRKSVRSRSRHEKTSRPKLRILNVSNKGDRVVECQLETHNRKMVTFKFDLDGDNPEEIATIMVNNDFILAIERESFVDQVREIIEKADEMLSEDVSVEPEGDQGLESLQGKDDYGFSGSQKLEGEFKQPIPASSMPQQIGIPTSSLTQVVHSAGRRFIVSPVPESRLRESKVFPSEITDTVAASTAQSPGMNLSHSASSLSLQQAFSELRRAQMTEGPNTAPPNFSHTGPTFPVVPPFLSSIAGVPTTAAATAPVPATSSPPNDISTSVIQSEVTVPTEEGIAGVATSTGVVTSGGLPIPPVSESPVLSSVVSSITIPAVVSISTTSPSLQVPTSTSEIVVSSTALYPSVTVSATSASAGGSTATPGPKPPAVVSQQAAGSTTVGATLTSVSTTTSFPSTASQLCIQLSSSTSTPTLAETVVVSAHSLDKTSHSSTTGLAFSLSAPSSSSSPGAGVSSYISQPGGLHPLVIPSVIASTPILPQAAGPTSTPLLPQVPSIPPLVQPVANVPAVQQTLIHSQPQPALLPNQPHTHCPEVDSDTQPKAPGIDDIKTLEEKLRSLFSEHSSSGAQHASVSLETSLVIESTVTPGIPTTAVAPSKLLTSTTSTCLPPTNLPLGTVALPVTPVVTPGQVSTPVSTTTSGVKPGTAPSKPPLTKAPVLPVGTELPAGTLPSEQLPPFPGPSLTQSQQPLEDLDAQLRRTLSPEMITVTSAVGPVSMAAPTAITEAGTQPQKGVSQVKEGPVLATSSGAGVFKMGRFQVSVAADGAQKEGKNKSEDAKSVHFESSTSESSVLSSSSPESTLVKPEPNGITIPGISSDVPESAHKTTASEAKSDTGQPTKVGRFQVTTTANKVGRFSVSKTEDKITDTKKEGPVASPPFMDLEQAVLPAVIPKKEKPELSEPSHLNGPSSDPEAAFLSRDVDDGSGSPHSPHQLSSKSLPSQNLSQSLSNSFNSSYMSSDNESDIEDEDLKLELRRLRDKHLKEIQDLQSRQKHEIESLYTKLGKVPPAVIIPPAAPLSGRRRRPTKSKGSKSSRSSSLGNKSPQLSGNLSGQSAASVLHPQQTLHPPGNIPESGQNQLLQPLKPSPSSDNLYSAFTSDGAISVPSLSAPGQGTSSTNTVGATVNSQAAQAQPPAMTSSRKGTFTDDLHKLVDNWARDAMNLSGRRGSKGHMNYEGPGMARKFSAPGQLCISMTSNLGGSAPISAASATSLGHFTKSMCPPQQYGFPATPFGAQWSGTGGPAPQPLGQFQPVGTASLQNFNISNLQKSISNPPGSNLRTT
# Sequence of ULK2 (Q8IYT8 whole entry, looked up, species assumed): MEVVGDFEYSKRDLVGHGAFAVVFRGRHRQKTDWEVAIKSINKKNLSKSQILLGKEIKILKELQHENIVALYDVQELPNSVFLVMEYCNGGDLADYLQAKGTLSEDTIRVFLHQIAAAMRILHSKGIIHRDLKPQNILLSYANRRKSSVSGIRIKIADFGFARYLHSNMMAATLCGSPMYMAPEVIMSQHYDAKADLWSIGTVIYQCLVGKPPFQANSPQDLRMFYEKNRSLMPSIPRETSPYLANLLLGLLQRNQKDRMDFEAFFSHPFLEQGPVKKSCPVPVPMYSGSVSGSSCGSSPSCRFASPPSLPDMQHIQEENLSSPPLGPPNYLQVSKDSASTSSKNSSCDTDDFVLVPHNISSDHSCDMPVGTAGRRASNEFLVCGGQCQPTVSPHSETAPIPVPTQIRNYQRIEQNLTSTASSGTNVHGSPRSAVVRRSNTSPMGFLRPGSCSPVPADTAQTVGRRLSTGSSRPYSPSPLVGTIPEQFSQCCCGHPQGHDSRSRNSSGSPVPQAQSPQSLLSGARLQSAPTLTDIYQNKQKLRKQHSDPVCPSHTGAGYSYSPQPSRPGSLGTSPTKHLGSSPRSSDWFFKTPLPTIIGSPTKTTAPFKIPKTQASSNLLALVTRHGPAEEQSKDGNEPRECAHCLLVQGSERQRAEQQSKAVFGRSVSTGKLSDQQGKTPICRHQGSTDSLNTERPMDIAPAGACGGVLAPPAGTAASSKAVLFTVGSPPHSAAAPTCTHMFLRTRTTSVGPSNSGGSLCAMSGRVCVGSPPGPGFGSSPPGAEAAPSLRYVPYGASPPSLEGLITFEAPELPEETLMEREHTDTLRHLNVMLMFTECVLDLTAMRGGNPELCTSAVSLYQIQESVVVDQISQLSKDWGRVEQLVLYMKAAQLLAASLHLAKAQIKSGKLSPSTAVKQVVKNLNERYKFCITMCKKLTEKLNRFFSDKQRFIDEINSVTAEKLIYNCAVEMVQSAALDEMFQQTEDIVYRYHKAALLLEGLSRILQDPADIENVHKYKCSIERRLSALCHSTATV
# Sequence of PRAK (Q8IW41 whole entry, species assumed): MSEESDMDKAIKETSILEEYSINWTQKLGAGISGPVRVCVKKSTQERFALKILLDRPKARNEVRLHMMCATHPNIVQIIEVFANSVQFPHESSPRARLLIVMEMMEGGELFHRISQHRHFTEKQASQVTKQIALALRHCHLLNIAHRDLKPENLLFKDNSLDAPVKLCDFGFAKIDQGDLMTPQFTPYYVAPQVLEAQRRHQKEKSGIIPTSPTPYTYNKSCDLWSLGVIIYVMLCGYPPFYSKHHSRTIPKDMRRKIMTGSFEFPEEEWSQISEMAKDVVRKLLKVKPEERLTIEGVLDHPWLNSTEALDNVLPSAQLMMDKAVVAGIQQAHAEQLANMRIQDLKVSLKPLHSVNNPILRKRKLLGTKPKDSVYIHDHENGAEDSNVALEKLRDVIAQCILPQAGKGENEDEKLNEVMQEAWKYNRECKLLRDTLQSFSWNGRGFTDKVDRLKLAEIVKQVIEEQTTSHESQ
# Sequence of MAPKAP-K2 (P49137 whole entry, species assumed): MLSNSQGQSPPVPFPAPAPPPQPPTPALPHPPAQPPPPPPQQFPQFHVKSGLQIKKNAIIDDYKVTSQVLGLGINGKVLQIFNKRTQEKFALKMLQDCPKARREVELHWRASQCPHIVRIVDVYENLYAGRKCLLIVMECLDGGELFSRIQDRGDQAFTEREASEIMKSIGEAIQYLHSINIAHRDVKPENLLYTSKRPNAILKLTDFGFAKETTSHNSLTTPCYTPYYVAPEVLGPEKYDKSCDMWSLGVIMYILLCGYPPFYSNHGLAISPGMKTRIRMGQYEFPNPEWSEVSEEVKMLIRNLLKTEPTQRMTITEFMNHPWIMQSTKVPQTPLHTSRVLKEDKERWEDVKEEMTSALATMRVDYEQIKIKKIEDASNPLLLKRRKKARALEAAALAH
smiles,measurement,setting,value
"CNc1nc(Nc2ccc(C(=O)N3CCOCC3)cc2OC)nc2[nH]cc(Cl)c12 [Compound 18, (4-((5-chloro-4-(methylamino)-7H-pyrrolo[2,3-d]pyrimidin-2-yl)amino)-3-methoxyphenyl)(morpholino)methanone]",KinomeScan value,MAP4K3,100
same,percent remaining enzymatic activity,JNK2 [1]; I10,4%
same,remaining activity at 1 µM,JNK2 [1]; [6],27%
same,remaining activity at 1 µM,Src; [7],110%
same,remaining activity at 1 µM,Src; [8],102%
same,remaining activity at 1 µM,IR; [7],21%
same,remaining activity at 1 µM,IR; [8],10%
same,percent remaining enzymatic activity,IRAK4; I10,82%
same,remaining activity at 1 µM,IRAK4; [6],95%
same,remaining activity at 1 µM,TrkA; [7],85%
same,remaining activity at 1 µM,TrkA; [8],84%
same,remaining activity at 1 µM,S6K1; [7],106%
same,remaining activity at 1 µM,S6K1; [8],102%
same,KinomeScan value,EGFR (L858R),83
same,remaining activity at 1 µM,MAPKAP-K2; [7],86%
same,remaining activity at 1 µM,MAPKAP-K2; [8],40%
same,KinomeScan value,[2],81
same,KinomeScan value,JNK2 [3],78
same,IC50,SmMLCK,81.3 nM
same,inhibition at 1 µM,SmMLCK; read-out: inhibition of kinase activity of the DMSO control,> 90%
same,remaining activity at 1 µM,SmMLCK; [7],9%
same,remaining activity at 1 µM,SmMLCK; [8],1%
same,remaining activity at 1 µM,MARK1; [7],89%
same,remaining activity at 1 µM,MARK1; [8],77%
same,remaining activity at 1 µM,EPH-B1; [7],119%
same,remaining activity at 1 µM,EPH-B1; [8],126%
same,KinomeScan value,CDK3,96
same,remaining activity at 1 µM,SGK1; [7],86%
same,remaining activity at 1 µM,SGK1; [8],76%
same,remaining activity at 1 µM,IKKe; [7],114%
same,remaining activity at 1 µM,IKKe; [8],98%
same,remaining activity at 1 µM,LKB1; [7],103%
same,remaining activity at 1 µM,LKB1; [8],96%
same,remaining activity at 1 µM,EPH-B4; [7],80%
same,remaining activity at 1 µM,EPH-B4; [8],86%
same,remaining activity at 1 µM,ULK2; [7],110%
same,remaining activity at 1 µM,ULK2; [8],95%
same,KinomeScan value,CSNK1G3,100
same,KinomeScan value,MET (M1250T),80
same,remaining activity at 1 µM,p38d MAPK; [7],107%
same,remaining activity at 1 µM,p38d MAPK; [8],102%
same,percent remaining enzymatic activity,CDK2-Cyclin A; I10,67%
same,remaining activity at 1 µM,CDK2-Cyclin A; [6],102%
same,KinomeScan value,EGFR (T790M),97
same,remaining activity at 1 µM,PDGFRA; [7],109%
same,remaining activity at 1 µM,PDGFRA; [8],89%
same,KinomeScan value,[4],99
same,remaining activity at 1 µM,TBK1; [7],88%
same,remaining activity at 1 µM,TBK1; [8],67%
same,remaining activity at 1 µM,DYRK1A; [7],49%
same,remaining activity at 1 µM,DYRK1A; [8],8%
same,remaining activity at 1 µM,PRAK; [7],43%
same,remaining activity at 1 µM,PRAK; [8],6%
same,percent remaining enzymatic activity,WNK1; I10,115%
same,remaining activity at 1 µM,WNK1; [6],108%
same,remaining activity at 1 µM,MSK1; [7],109%
same,remaining activity at 1 µM,MSK1; [8],99%
same,KinomeScan value,[5],84
